Reference: ChEMBL document CHEMBL6127052, “Discovery of membrane-targeting amphiphilic honokiol derivatives containing an oxazolethione moiety to combat methicillin-resistant Staphylococcus aureus (MRSA) infections” (Eur J Med Chem, 2024)
≈ marks a conversion by molar mass, not a printed value.

Key:
Staphylococcus aureus [1] = assay: Antibacterial activity against Staphylococcus aureus ATCC 29213 by CLSI based micro-broth dilution method; assay type: functional
Staphylococcus aureus [2] = assay: Antibacterial activity against methicillin-resistant Staphylococcus aureus N315 by CLSI based micro-broth dilution method; assay type: functional
Staphylococcus aureus [3] = assay: Antibacterial activity against methicillin-resistant Staphylococcus aureus clinical isolate M11 by CLSI based micro-broth dilution method; assay type: functional
Staphylococcus aureus [4] = assay: Antibacterial activity against methicillin-resistant Staphylococcus aureus clinical isolate M12 by CLSI based micro-broth dilution method; assay type: functional
Staphylococcus aureus [5] = assay: Antibacterial activity against methicillin-resistant Staphylococcus aureus clinical isolate M13 by CLSI based micro-broth dilution method; assay type: functional
Staphylococcus aureus [6] = assay: Antibacterial activity against methicillin-resistant Staphylococcus aureus clinical isolate M14 by CLSI based micro-broth dilution method; assay type: functional
Staphylococcus aureus [7] = assay: Antibacterial activity against methicillin-resistant Staphylococcus aureus clinical isolate M16 by CLSI based micro-broth dilution method; assay type: functional
Staphylococcus aureus [8] = assay: Antibacterial activity against methicillin-resistant Staphylococcus aureus clinical isolate M17 by CLSI based micro-broth dilution method; assay type: functional
Staphylococcus aureus [9] = assay: Antibacterial activity against methicillin-resistant Staphylococcus aureus clinical isolate M20 by CLSI based micro-broth dilution method; assay type: functional
Staphylococcus aureus [10] = assay: Antibacterial activity against methicillin-resistant Staphylococcus aureus clinical isolate M21 by CLSI based micro-broth dilution method; assay type: functional
Staphylococcus aureus [11] = assay: Antibacterial activity against methicillin-resistant Staphylococcus aureus clinical isolate M22 by CLSI based micro-broth dilution method; assay type: functional
Staphylococcus aureus [12] = assay: Antibacterial activity against methicillin-resistant Staphylococcus aureus clinical isolate M23 by CLSI based micro-broth dilution method; assay type: functional
Escherichia coli = assay: Antibacterial activity against Escherichia coli ATCC 25922 by CLSI based micro-broth dilution method; assay type: functional
[13] = Hemolytic activity in sheep erythrocytes incubated for 1 hr by absorbance based assay; assay type: toxicity, cell-based, Ovis aries, Erythrocyte
[14] = Selectivity index, ratio of HC50 for hemolytic activity in sheep erythrocytes to MIC for antibacterial activity against Staphylococcus aureus ATCC 29213; assay type: toxicity, cell-based, RBC

Row | Compound | MIC (Staphylococcus aureus [1]) | MIC (Staphylococcus aureus [2]) | MIC (Staphylococcus aureus [3]) | MIC (Staphylococcus aureus [4]) | MIC (Staphylococcus aureus [5]) | MIC (Staphylococcus aureus [6]) | MIC (Staphylococcus aureus [7]) | MIC (Staphylococcus aureus [8]) | MIC (Staphylococcus aureus [9]) | MIC (Staphylococcus aureus [10]) | MIC (Staphylococcus aureus [11]) | MIC (Staphylococcus aureus [12]) | MIC (Escherichia coli) | HC50 at 1 h [13] | selectivity ratio [14]
1 | C=CCc1cc(-c2ccc(OCCC[N+](C)(C)CC(=O)NCCCC)c(CC=C)c2)c2oc(=S)n(Cc3cc(F)c(F)c(F)c3)c2c1.[Br-] | 2 µg/mL | 16 µg/mL | 2 µg/mL | 2 µg/mL | 4 µg/mL | 2 µg/mL | 2 µg/mL | 4 µg/mL | 2 µg/mL | 2 µg/mL | 4 µg/mL | 2 µg/mL | > 128 µg/mL | 52.8 µg/mL | 
2 | C=CCc1ccc(O)c(-c2ccc(O)c(CC=C)c2)c1 [HONOKIOL] | 32 µg/mL (≈ 120 µM) | 8 µg/mL (≈ 30 µM) | 16 µg/mL (≈ 60.1 µM) | 8 µg/mL (≈ 30 µM) | 16 µg/mL (≈ 60.1 µM) | 16 µg/mL (≈ 60.1 µM) | 16 µg/mL (≈ 60.1 µM) | 16 µg/mL (≈ 60.1 µM) | 8 µg/mL (≈ 30 µM) | 16 µg/mL (≈ 60.1 µM) | 16 µg/mL (≈ 60.1 µM) | 16 µg/mL (≈ 60.1 µM) | > 128 µg/mL | > 80 µg/mL | > 2.5
3 | C=CCc1cc(-c2ccc(OCCC[N+](C)(C)CC(=O)NCCCC)c(CC=C)c2)c2oc(=S)n(Cc3ccccc3)c2c1.[Br-] | 8 µg/mL | 8 µg/mL | 4 µg/mL | 4 µg/mL | 4 µg/mL | 4 µg/mL | 4 µg/mL | 8 µg/mL | 8 µg/mL | 4 µg/mL | 4 µg/mL | 4 µg/mL | > 128 µg/mL | > 160 µg/mL | > 20
4 | C=CCc1cc(-c2ccc(OCCC[N+](C)(C)CC(=O)NCCCC)c(CC=C)c2)c2oc(=S)n(Cc3cccc(OC)c3)c2c1.[Br-] | 8 µg/mL | 8 µg/mL | 4 µg/mL | 4 µg/mL | 8 µg/mL | 4 µg/mL | 4 µg/mL | 8 µg/mL | 4 µg/mL | 4 µg/mL | 16 µg/mL | 8 µg/mL | > 128 µg/mL | > 160 µg/mL | > 20
5 | C=CCc1cc(-c2ccc(OCCC[N+](C)(C)CC(=O)NCCCC)c(CC=C)c2)c2oc(=S)n(Cc3ccc(Br)cc3)c2c1.[Br-] | 32 µg/mL | 32 µg/mL | 16 µg/mL | 16 µg/mL | 16 µg/mL | 16 µg/mL | 16 µg/mL | 16 µg/mL | 16 µg/mL | 16 µg/mL | 32 µg/mL | 16 µg/mL | > 128 µg/mL | 489 µg/mL | 15.3
6 | C=CCc1cc(-c2ccc(OCCC[N+](C)(C)CC(=O)NCCCC)c(CC=C)c2)c2oc(=S)n(Cc3cc(Br)cc(Br)c3)c2c1.[Br-] | > 128 µg/mL | 64 µg/mL | 32 µg/mL | 64 µg/mL | 128 µg/mL | 128 µg/mL | 64 µg/mL | 64 µg/mL | 32 µg/mL | 32 µg/mL | 64 µg/mL | 64 µg/mL | > 128 µg/mL | > 160 µg/mL | 1.3
7 | C=CCc1cc(-c2ccc(OCCC[N+](C)(C)CC(=O)NCCCC)c(CC=C)c2)c2oc(=S)n(Cc3cc(Br)ccc3F)c2c1.[Br-] | 16 µg/mL | 16 µg/mL | 8 µg/mL | 8 µg/mL | 16 µg/mL | 8 µg/mL | 8 µg/mL | 32 µg/mL | 8 µg/mL | 8 µg/mL | 16 µg/mL | 16 µg/mL | > 128 µg/mL | > 160 µg/mL | > 10
8 | C=CCc1cc(-c2ccc(OCCC[N+](C)(C)CC(=O)NCCCC)c(CC=C)c2)c2oc(=S)n(Cc3c(Cl)cccc3Cl)c2c1.[Br-] | 16 µg/mL | 32 µg/mL | 8 µg/mL | 4 µg/mL | 16 µg/mL | 16 µg/mL | 8 µg/mL | 16 µg/mL | 8 µg/mL | 8 µg/mL | 32 µg/mL | 8 µg/mL | > 128 µg/mL | 400 µg/mL | 25
9 | C=CCc1cc(-c2ccc(OCCC[N+](C)(C)CC(=O)NCCCC)c(CC=C)c2)c2oc(=S)n(Cc3ccc(Cl)cc3F)c2c1.[Br-] | > 128 µg/mL | 128 µg/mL | > 128 µg/mL | > 128 µg/mL | > 128 µg/mL | > 128 µg/mL | > 128 µg/mL | > 128 µg/mL | > 128 µg/mL | > 128 µg/mL | > 128 µg/mL | > 128 µg/mL | > 128 µg/mL | > 160 µg/mL | 1.3
10 | C=CCc1cc(-c2ccc(OCCC[N+](C)(C)CC(=O)NCCCC)c(CC=C)c2)c2oc(=S)n(Cc3cc(Cl)cc(Cl)c3)c2c1.[Br-] | 64 µg/mL | 64 µg/mL | 32 µg/mL | 8 µg/mL | 32 µg/mL | 32 µg/mL | 32 µg/mL | 32 µg/mL | 16 µg/mL | 16 µg/mL | 32 µg/mL | 32 µg/mL | > 128 µg/mL | 31.3 µg/mL | 0.5
11 | C=CCc1cc(-c2ccc(OCCC[N+](C)(C)CC(=O)NCCCC)c(CC=C)c2)c2oc(=S)n(Cc3ccc(Br)cc3Br)c2c1.[Br-] | > 128 µg/mL | 128 µg/mL | > 128 µg/mL | > 128 µg/mL | > 128 µg/mL | > 128 µg/mL | > 128 µg/mL | > 128 µg/mL | > 128 µg/mL | > 128 µg/mL | > 128 µg/mL | > 128 µg/mL | > 128 µg/mL | 65.4 µg/mL | 0.5
12 | C=CCc1cc(-c2ccc(OCCC[N+](C)(C)CC(=O)NCCCC)c(CC=C)c2)c2oc(=S)n(Cc3ccc(Cl)c(Br)c3)c2c1.[Br-] | > 128 µg/mL | > 128 µg/mL | 128 µg/mL | > 128 µg/mL | > 128 µg/mL | > 128 µg/mL | > 128 µg/mL | 128 µg/mL | > 128 µg/mL | 128 µg/mL | 128 µg/mL | > 128 µg/mL | > 128 µg/mL | > 160 µg/mL | 1.3
13 | C=CCc1cc(-c2ccc(OCCC[N+](C)(C)CC(=O)NCCCC)c(CC=C)c2)c2oc(=S)n(Cc3ccc(F)cc3Cl)c2c1.[Br-] | 32 µg/mL | 32 µg/mL | 16 µg/mL | 32 µg/mL | 64 µg/mL | 16 µg/mL | 16 µg/mL | 64 µg/mL | 16 µg/mL | 16 µg/mL | 64 µg/mL | 32 µg/mL | > 128 µg/mL | > 160 µg/mL | > 5
14 | C=CCc1cc(-c2ccc(OCCC[N+](C)(C)CC(=O)NCCCC)c(CC=C)c2)c2oc(=S)n(Cc3ccc(OC)cc3)c2c1.[Br-] | 32 µg/mL | 32 µg/mL | 2 µg/mL | 2 µg/mL | 4 µg/mL | 2 µg/mL | 4 µg/mL | 16 µg/mL | 2 µg/mL | 2 µg/mL | 8 µg/mL | 8 µg/mL | > 128 µg/mL | 57.4 µg/mL | 1.8
15 | C=CCc1cc(-c2ccc(OCCC[N+](C)(C)CC(=O)NCCCC)c(CC=C)c2)c2oc(=S)n(Cc3ccc(Cl)c(F)c3)c2c1.[Br-] | 32 µg/mL | 32 µg/mL | 8 µg/mL | 8 µg/mL | 16 µg/mL | 16 µg/mL | 8 µg/mL | 128 µg/mL | 8 µg/mL | 8 µg/mL | 64 µg/mL | 8 µg/mL | > 128 µg/mL | > 160 µg/mL | > 5
16 | C=CCc1cc(-c2ccc(OCCC[N+](C)(C)CC(=O)NCCCC)c(CC=C)c2)c2oc(=S)n(Cc3ccc(F)c(Cl)c3)c2c1.[Br-] | 128 µg/mL | 64 µg/mL | 16 µg/mL | 8 µg/mL | 16 µg/mL | 32 µg/mL | 16 µg/mL | 16 µg/mL | 16 µg/mL | 8 µg/mL | 32 µg/mL | 32 µg/mL | > 128 µg/mL | > 160 µg/mL | > 1.25
17 | C=CCc1cc(-c2ccc(OCCC[N+](C)(C)CC(=O)NCCCC)c(CC=C)c2)c2oc(=S)n(Cc3ccc(Cl)cc3)c2c1.[Br-] | 16 µg/mL | 32 µg/mL | 4 µg/mL | 4 µg/mL | 8 µg/mL | 16 µg/mL | 8 µg/mL | 8 µg/mL | 4 µg/mL | 4 µg/mL | 8 µg/mL | 16 µg/mL | > 128 µg/mL | 519 µg/mL | 32.5
18 | C=CCc1cc(-c2ccc(OCCC[N+](C)(C)CC(=O)NCCCC)c(CC=C)c2)c2oc(=S)n(Cc3cccc(Cl)c3Cl)c2c1.[Br-] | 32 µg/mL | 64 µg/mL | 16 µg/mL | 8 µg/mL | 64 µg/mL | 32 µg/mL | 64 µg/mL | 64 µg/mL | 8 µg/mL | 8 µg/mL | 64 µg/mL | 64 µg/mL | > 128 µg/mL | 22 µg/mL | 0.7
19 | C[C@@H](O)[C@H]1C(=O)N2C(C(=O)O)=C(S[C@@H]3CN[C@H](C(=O)N(C)C)C3)[C@H](C)[C@H]12 [MEROPENEM] |  |  |  |  |  |  |  |  |  |  |  |  | 0.063 µg/mL (≈ 0.164 µM) |  | 
